In US9290476B2, “Methylene linked quinolinyl modulators of RORγt” (Janssen Pharmaceutica NV, priority 2012, dated 2016):
Counter-ions that a name gives are not always drawn. Like-named read-outs stand apart in the source and are kept apart here.

Tests used:
[1] = target: human RORγt LBD (Homo sapiens (Human), UniProt P51449); assay: RORγt reporter assay (GAL4-RORγt LBD luciferase in HEK293T cells); assay type: cell-based; settings: for IC50 / RORγt reporter Assay, % inhibition @ 6 μM: HEK293T cells; for IC50: 24 hours compound treatment; for inhibition at 6 µM: HEK-293T, read-out: RORγt reporter Assay, % inhibition @ 6 μM, HEK293T cells, 6 μM
In short: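 HEK293T cells transiently co-transfected with GAL4-DBD–wild-type human RORγt LBD (pBIND) and GAL4-responsive firefly luciferase reporter (pGL4.31); renilla luciferase from pBIND normalises transfection/viability. Cells in phenol-red-free DMEM, 5% lipid-reduced FCS, treated with compound 24 h. Firefly/renilla ratio plotted against compound concentration.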

[2] = tested on: IL-17 production by CD4 T cells; assay: Human Th17 assay (IL-17 production by CD4 T cells under Th17 differentiation); assay type: cell-based; settings: human CD4+ T cells, IL-17 after 3 days, read-out: Human Th17 Assay, IC50 μM
In short: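 Healthy-donor peripheral CD4+ T cells (1.5×10^5/well) preincubated 1 h with titrated compound (0.2% DMSO), then differentiated with anti-CD3/CD28 beads, anti-IL4, anti-IFNγ, IL1β, IL23, IL6, TGFβ and IL2 for 3 days at 37 °C. Supernatant IL-17 quantified by MSD electrochemiluminescence against a standard curve; IC50 fitted.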

[3] = target: human RORγt ligand binding domain (RORγt LBD) (Homo sapiens (Human), UniProt P51449); assay: RORγt ThermoFluor assay (thermal shift binding affinity); settings: estimated from thermal shift
In short: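 Thermal shift used 0.065 mg/mL RORγt LBD with 60 μM 1,8-ANS in 100 mM Hepes pH 7.0, 10 mM NaCl, 2.5 mM GSH and 0.002% Tween-20, heated at 1 °C/min. Fluorescence was excited at 380–400 nm and emission read at 500 nm.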

Chain of human RORγt ligand binding domain (RORγt LBD) (P51449 other isoform, or with tags, fused parts or gaps): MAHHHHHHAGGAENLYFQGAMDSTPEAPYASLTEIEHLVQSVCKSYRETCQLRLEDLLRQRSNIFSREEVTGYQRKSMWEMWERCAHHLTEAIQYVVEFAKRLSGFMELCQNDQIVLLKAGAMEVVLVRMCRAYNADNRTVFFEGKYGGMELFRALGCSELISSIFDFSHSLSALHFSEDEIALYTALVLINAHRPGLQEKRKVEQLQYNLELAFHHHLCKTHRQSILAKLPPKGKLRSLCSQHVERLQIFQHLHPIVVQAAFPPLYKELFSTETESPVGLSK
Chain of human RORγt LBD (P51449 258-518): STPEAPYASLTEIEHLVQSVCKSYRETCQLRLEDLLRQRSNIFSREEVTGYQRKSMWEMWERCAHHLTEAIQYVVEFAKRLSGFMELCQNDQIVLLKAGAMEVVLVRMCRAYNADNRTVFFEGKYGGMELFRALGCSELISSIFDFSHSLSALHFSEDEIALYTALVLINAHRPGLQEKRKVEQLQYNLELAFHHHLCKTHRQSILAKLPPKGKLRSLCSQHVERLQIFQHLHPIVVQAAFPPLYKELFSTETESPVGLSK

| IC50 [1] | inhibition at 6 µM [1] | IC50 ([2]; Homo sapiens, CD4+ T, 72 h) | Kd [3] | IC50 [2] | RORγt reporter Assay, % inhibition @ 6 μM [1] | Structure (SMILES) |
| --- | --- | --- | --- | --- | --- | --- |
| 0.0025 µM | 94% | 0.0015 µM | 0.024 nM |  |  | COc1nc2ccc(C(O)(c3sc(C)nc3C)c3cnnn3C)cc2c(Cl)c1Cc1ccc(C(F)(F)F)cc1 (stereo not drawn) [Example 79C, (4-Chloro-2-methoxy-3-(4-(trifluoromethyl)benzyl)quinolin-6-yl)(2,4-dimethylthiazol-5-yl)(1-methyl-1H-1,2,3-triazol-5-yl)methanol] |
| 0.13 µM | 101% |  | 140 nM | 0.22 µM |  | Cc1cc(C(O)(c2ccc(C(F)(F)F)nc2)c2cncn2C)cc2c(C#N)c(Cc3ccc(-n4cccn4)cc3)c(C#N)nc12 (single isomer, unassigned) [Example 65B, 3-(4-(1H-pyrazol-1-yl)benzyl)-6-(hydroxy(1-methyl-1H-imidazol-5-yl)(6-(trifluoromethyl)pyridin-3-yl)methyl)-8-methylquinoline-2,4-dicarbonitrile] |
| 0.011 µM | 105% |  | 1.6 nM | 0.011 µM |  | Cn1cncc1C(O)(c1ccc(Cl)cc1)c1ccc2nc(C#N)c(Cc3ccc(-n4cccn4)cc3)c(C#N)c2c1 (single isomer, unassigned) [Example 71B, 3-(4-(1H-Pyrazol-1-yl)benzyl)-6-((4-chlorophenyl)(hydroxy)(1-methyl-1H-imidazol-5-yl)methyl)quinoline-2,4-dicarbonitrile] |
| 0.087 µM |  | 0.066 µM | 5.8 nM |  | 97% | COc1nc2c(C)cc(C(O)(c3ccc(Cl)cc3)c3cncn3C)cc2c(Cl)c1Cc1ccc(-n2cccn2)cc1 (single isomer, unassigned) [Example 28C, (3-(4-(1H-pyrazol-1-yl)benzyl)-4-chloro-2-methoxy-8-methylquinolin-6-yl)(4-chlorophenyl)(1-methyl-1H-imidazol-5-yl)methanol] |
| 0.047 µM | 100% | 0.039 µM | 1.4 nM |  |  | COc1ccc(C(O)(c2ccc3nc(OC)c(Cc4ccc(-n5cccn5)cc4)c(Cl)c3c2)c2cncs2)cn1 (single isomer, unassigned) [Example 20B, (3-(4-(1H-pyrazol-1-yl)benzyl)-4-chloro-2-methoxyquinolin-6-yl)(6-methoxypyridin-3-yl)(thiazol-5-yl)methanol] |
| 0.017 µM |  |  | 1.4 nM | 0.0086 µM | 97% | Cn1cncc1C(O)(c1ccc(C(F)(F)F)nc1)c1ccc2nc(N3CCC3)c(Cc3ccc(C(F)(F)F)cc3)c(Cl)c2c1 (single isomer, unassigned) [Example 92C, (2-(Azetidin-1-yl)-4-chloro-3-(4-(trifluoromethyl)benzyl)quinolin-6-yl)(1-methyl-1H-imidazol-5-yl)(6-(trifluoromethyl)pyridin-3-yl)methanol] |
| 0.18 µM | 98% | 0.1 µM | 40 nM |  |  | COc1nc2ccc(C(O)(c3ccc(Cl)cc3)c3cncn3C)cc2c(Cl)c1Cc1cc2ccccc2s1 (stereo not drawn) [Example 36A, (3-(Benzo[b]thiophen-2-ylmethyl)-4-chloro-2-methoxyquinolin-6-yl)(4-chlorophenyl)(1-methyl-1H-imidazol-5-yl)methanol] |
| 0.035 µM | 101% |  | 6.3 nM | 0.01 µM |  | CON(C)c1nc2ccc(C(O)(c3ccc(C(F)(F)F)nc3)c3cncn3C)cc2c(Cl)c1Cc1ccc(-n2cccn2)cc1 (single isomer, unassigned) [Example 67B, (3-(4-(1H-pyrazol-1-yl)benzyl)-4-chloro-2-(methoxy(methyl)amino)quinolin-6-yl)(1-methyl-1H-imidazol-5-yl)(6-(trifluoromethyl)pyridin-3-yl)methanol] |
| 0.26 µM |  |  | 130 nM | 0.3 µM | 103% | Cn1cncc1C(O)(c1ccc(Cl)cc1)c1ccc2nc(C#N)c(Cc3ccc(-n4cccn4)cc3)c(C#N)c2c1 (single isomer, unassigned) [Example 71C, 3-(4-(1H-Pyrazol-1-yl)benzyl)-6-((4-chlorophenyl)(hydroxy)(1-methyl-1H-imidazol-5-yl)methyl)quinoline-2,4-dicarbonitrile] |
| 0.33 µM | 87% | 0.38 µM | 440 nM |  |  | CN(C)c1ccc(C(O)(c2ccc3nc(Cl)c(Cc4ccc(-n5cccn5)cc4)c(Cl)c3c2)c2cncn2C)cc1 (stereo not drawn) [Example 25, (3-(4-(1H-Pyrazol-1-yl)benzyl)-2,4-dichloroquinolin-6-yl)(4-(dimethylamino)phenyl)(1-methyl-1H-imidazol-5-yl)methanol.TFA] |
| 0.055 µM | 103% | 0.1 µM | 14 nM |  |  | COc1nc2c(F)cc(C(O)(c3ccc(C(F)(F)F)nc3)c3cncn3C)cc2c(Cl)c1Cc1ccc(-n2cccn2)cc1 (single isomer, unassigned) [Example 58B, (3-(4-(1H-pyrazol-1-yl)benzyl)-4-chloro-8-fluoro-2-methoxyquinolin-6-yl)(1-methyl-1H-imidazol-5-yl)(6-(trifluoromethyl)pyridin-3-yl)methanol] |

| Structure (SMILES) | IC50 [1] | inhibition at 6 µM [1] | IC50 ([2]; Homo sapiens, CD4+ T, 72 h) | Kd [3] | IC50 [2] | RORγt reporter Assay, % inhibition @ 6 μM [1] |
| --- | --- | --- | --- | --- | --- | --- |
| COc1nc2ccc(C(O)(c3ccccc3)C3CCN(C(C)=O)CC3)cc2c(Cl)c1Cc1ccc(-n2cccn2)cc1 (single isomer, unassigned) [Example 83C, 1-(4-((3-(4-(1H-Pyrazol-1-yl)benzyl)-4-chloro-2-methoxyquinolin-6-yl)(hydroxy)(phenyl)methyl)piperidin-1-yl)ethanone] | 0.14 µM |  |  | 77 nM | 0.12 µM | 103% |
